According to US12281225B2, “Process for preparing stable polymers containing vinylimidazole” (BASF SE, priority 2018, dated 2025):

Experiments:
[1] = Iodine color number according to DIN 6162:2014-09; type: physicochemical
[2] = Physical stability; visual assessment (color, turbidity, phase separation); type: physicochemical; parameters: key: ++: no discernible change with respect to color, turbidity or phase separation; +: marginal change in color number, somewhat increased Tyndall effect but no turbidity; 0: easily discernible increase in color number and moderate turbidity−no phase separation; −: turbidity and change in color number readily discernible by visual assessment; −−: strong color change with strong turbidity and incipient phase separation
Excerpt: Physical stability; visual assessment according to:
++=no discernible change with respect to color, turbidity or phase separation; +=marginal change in color number, somewhat increased Tyndall effect but no turbidity; 0=easily discernible increase in color number and moderate turbidity−no phase separation; − turbidity and change in color number readily discernible by visual assessment; −− strong color change with strong turbidity and incipient phase separation.
Before storage, all batches could be rated ++ (no turbidity or phase separation; no influence of the biocide on the color number of the product).

[3] = tested on: Bacteria: Escherichia coli, Staphylococcus aureus, Pseudomonas aeruginosa, Pseudomonas putida, Burkholderia cepacia, Alcaligenes faecalis; test: Preservation test with periodic inoculation, bacteria assessment; type: cell-based; conditions: for Start sample measurement, bact. assess., 4th inoculation: freshly formulated; for 60 d 40° C., bact. assess., 4th inoculation: sample stored 60 d at 40° C.
Procedure: (§1) Microbiological results at the start (freshly formulated, i.e. 4-week test series is started immediately) and after 60 days of storage at 40° C. (i.e. the 4-week microbial testing is started with the sample stored at 40° C. for 60 days)
(§2) The test described below is carried out in order to ascertain the preserving effect of chemical preservatives in aqueous products and systems, the principle of the described method reflecting the efficacy of chemical preservatives with respect to pot-maintenance of aqueous products/systems under conditions corresponding to the use of laundry products/consumer products by the consumer. For this purpose, the preservatives to be tested are added in those concentrations which correspond to from the literature or to the manufacturer data from the suppliers (e.g. Thor, Speyer). In said test, our orientation was toward the upper range, which, with the exception of VI-containing polymers, had always led to excellent results in the case of aqueous polymers for laundry.
(§3) A constant microorganism load is achieved by periodic inoculation of the test batches. Before the swabs of each batch made respectively immediately in parallel with the inoculation. The assessment is made on the basis of the microbial growth of the streaks.
(§4) When carrying out said tests, 25 g of the polymer to be tested are weighed in each case into a vessel with a screw cap. The preservatives to be tested are each added in separate batches according to the specified use concentrations. An unpreserved product sample was used in each case for the growth control. Two days after the addition of the preservative, the samples are infected with 0.5 ml of inoculum (2% w/w). The titer of this inoculant solution is 10^9 organisms per ml. The following microorganisms are the test organisms for the preservation test:
(§5) • Escherichia coli • Staphylococcus aureus • Pseudomonas aeruginosa • Pseudomonas putida • Burkholderia cepacia • Alcaligenes faecalis Yeast: • Candida albicans • Candida valida • Rhodotorula rura • Saccharomyces cerevisiae
(§6) The test batches are inoculated four times altogether and once a week and are streaked on an agar plate once a week; the first streaking is done immediately before the new inoculation. Microbial growth on the agar surface is assessed after a three-day incubation at 25° C. As a precaution, negative swabs are additionally observed for a further three days and reassessed. The preserving effect is effected in a semiquantitative method via the growth of the individual streaks in accordance with the assessment from − via + to +++. The preservative result is repeatedly demonstrably robust, i.e. +++− defines the microbial growth.
(§7) When assessing the results, it is assumed that a preservative can be regarded as good if there are batches under the above-described laboratory conditions for a period of four weeks without microbial invasion of the sample, and that, even after the fourth inoculation, no microbial attacks occur growth can be identified. • −−: no growth • −: slight growth, max. 100 colonies • 0: moderate growth, max. 400 colonies • +: uniform growth with individual colonies still easily identifiable • ++: strong growth; too many colonies to be counted, already some extensive growth

[4] = tested on: Yeast: Candida albicans, Candida valida, Rhodotorula rura, Saccharomyces cerevisiae; test: Preservation test with periodic inoculation, yeast assessment; type: cell-based; conditions: for 60 d 40° C., yeast assess., 4th inoculation: sample stored 60 d at 40° C.; for Start sample measurement, yeast assess., 4th inoculation: freshly formulated
Procedure: as §1, §2, §3, §4, §5, §6, §7

[5] = Polymer P5 (HP56) with stabilizer

With `O=c1[nH]sc2ccccc12` [BIT, 1,2-benzisothiazolin-3-one] the “Iodine color number, 60 d 40° C.” value ([1]; Polymer P1 with stabilizer) was 6.0, the “Iodine color number, start” value ([1]; Polymer P1 with stabilizer) was 2.6 and the “Iodine color number, 60 d 40° C.” value ([1]; Polymer P2 with stabilizer) was 7.1. The “Iodine color number, start” value ([1]; Polymer P2 with stabilizer) was 2.9, the “Iodine color number, 60 d 40° C.” value ([1]; Polymer P3 with stabilizer) was 9.3 and the “Iodine color number, start” value ([1]; Polymer P3 with stabilizer) was 3.4. For the same compound, the “Iodine color number, 60 d 40° C.” value ([1]; Polymer P4 with stabilizer) was 9.2, the “Iodine color number, start” value ([1]; Polymer P4 with stabilizer) was 3.4 and the “Iodine color number, 60 d 40° C.” value [1, 5] was 10.4. The “Iodine color number, start” value [1, 5] was 3.6, the “Iodine color number, 60 d 40° C.” value ([1]; Polymer P6 with stabilizer) was 10.0 and the “Iodine color number, start” value ([1]; Polymer P6 with stabilizer) was 3.6. The “Iodine color number, 60 d 40° C.” value ([1]; Polymer P7 with stabilizer) was 10.0, the “Iodine color number, start” value ([1]; Polymer P7 with stabilizer) was 3.6 and the “Iodine color number, 60 d 40° C.” value ([1]; Polymer P8 with stabilizer) was 10.4. For the same compound, the “Iodine color number, start” value ([1]; Polymer P8 with stabilizer) was 3.4, the “Iodine color number, 60 d 40° C.” value ([1]; Polymer P9 with stabilizer) was 12.8 and the “Iodine color number, start” value ([1]; Polymer P9 with stabilizer) was 4.0. The “Physical stability, 60 d 40° C.*” value ([2]; Polymer P1 with stabilizer) was “−”, the “Physical stability, 60 d 40° C.*” value ([2]; Polymer P2 with stabilizer) was “−” and the “Physical stability, 60 d 40° C.*” value ([2]; Polymer P3 with stabilizer) was “−”. For the same compound, the “Physical stability, 60 d 40° C.*” value ([2]; Polymer P4 with stabilizer) was “−”, the “Physical stability, 60 d 40° C.*” value [2, 5] was “−” and the “Physical stability, 60 d 40° C.*” value ([2]; Polymer P6 with stabilizer) was “−”. For the same compound, the “Physical stability, 60 d 40° C.*” value ([2]; Polymer P7 with stabilizer) was “−”, the “Physical stability, 60 d 40° C.*” value ([2]; Polymer P8 with stabilizer) was “−−” and the “Physical stability, 60 d 40° C.*” value ([2]; Polymer P9 with stabilizer) was “−”. For the same compound, the “Start sample measurement, bact. assess., 4th inoculation” value ([3]; Polymer P1) was “− (slight growth, max. 100 colonies)”, the “60 d 40° C., bact. assess., 4th inoculation” value ([3]; Polymer P1) was “+” and the “Start sample measurement, bact. assess., 4th inoculation” value ([3]; Polymer P2) was “− (slight growth, max. 100 colonies)”. The “60 d 40° C., bact. assess., 4th inoculation” value ([3]; Polymer P2) was “++”, the “Start sample measurement, bact. assess., 4th inoculation” value ([3]; Polymer P3) was “− (slight growth, max. 100 colonies)” and the “60 d 40° C., bact. assess., 4th inoculation” value ([3]; Polymer P3) was “++”. The “60 d 40° C., bact. assess., 4th inoculation” value ([3]; Polymer P4) was “+”, the “60 d 40° C., bact. assess., 4th inoculation” value ([3]; Polymer P5 (HP56)) was “++” and the “60 d 40° C., bact. assess., 4th inoculation” value ([3]; Polymer P6) was “+”. For the same compound, the “60 d 40° C., bact. assess., 4th inoculation” value ([3]; Polymer P7) was “++”, the “Start sample measurement, bact. assess., 4th inoculation” value ([3]; Polymer P8) was “− (slight growth, max. 100 colonies)” and the “60 d 40° C., bact. assess., 4th inoculation” value ([3]; Polymer P8) was “+”. For the same compound, the “60 d 40° C., bact. assess., 4th inoculation” value ([3]; Polymer P9) was “++”, the “60 d 40° C., yeast assess., 4th inoculation” value ([4]; Polymer P1) was “+” and the “60 d 40° C., yeast assess., 4th inoculation” value ([4]; Polymer P2) was “++”. The “Start sample measurement, yeast assess., 4th inoculation” value ([4]; Polymer P3) was “− (slight growth, max. 100 colonies)”, the “60 d 40° C., yeast assess., 4th inoculation” value ([4]; Polymer P3) was “++” and the “Start sample measurement, yeast assess., 4th inoculation” value ([4]; Polymer P4) was “− (slight growth, max. 100 colonies)”. For the same compound, the “60 d 40° C., yeast assess., 4th inoculation” value ([4]; Polymer P4) was “++”, the “Start sample measurement, yeast assess., 4th inoculation” value ([4]; Polymer P5 (HP56)) was “− (slight growth, max. 100 colonies)” and the “60 d 40° C., yeast assess., 4th inoculation” value ([4]; Polymer P5 (HP56)) was “++”. For the same compound, the “Start sample measurement, yeast assess., 4th inoculation” value ([4]; Polymer P6) was “− (slight growth, max. 100 colonies)”, the “60 d 40° C., yeast assess., 4th inoculation” value ([4]; Polymer P6) was “++” and the “Start sample measurement, yeast assess., 4th inoculation” value ([4]; Polymer P7) was “− (slight growth, max. 100 colonies)”. For the same compound, the “60 d 40° C., yeast assess., 4th inoculation” value ([4]; Polymer P7) was “++”, the “60 d 40° C., yeast assess., 4th inoculation” value ([4]; Polymer P8) was “+” and the “Start sample measurement, yeast assess., 4th inoculation” value ([4]; Polymer P9) was “− (slight growth, max. 100 colonies)”. The “60 d 40° C., yeast assess., 4th inoculation” value ([4]; Polymer P9) was “++”.
